Test results published in patent US20090099029A1, “Methods and substrates for conducting assays” (Invitrogen Corporation, priority 2005, published 2009).

Tests used:
Test in all cases: Further analysis of a plurality of inhibitors and a plurality of kinases (Table 5 inhibition results)
Assay type in all cases: biochemical
Design in all cases: scale not given here
[1] = biological target: T1, kinases of Table 5 (Homo sapiens, UniProt Q9UHD2); details: kinase TBK1 (Part I, plate G1, Domain 0); inhibitor 100 uM
T1 sequence (Q9UHD2 1-729): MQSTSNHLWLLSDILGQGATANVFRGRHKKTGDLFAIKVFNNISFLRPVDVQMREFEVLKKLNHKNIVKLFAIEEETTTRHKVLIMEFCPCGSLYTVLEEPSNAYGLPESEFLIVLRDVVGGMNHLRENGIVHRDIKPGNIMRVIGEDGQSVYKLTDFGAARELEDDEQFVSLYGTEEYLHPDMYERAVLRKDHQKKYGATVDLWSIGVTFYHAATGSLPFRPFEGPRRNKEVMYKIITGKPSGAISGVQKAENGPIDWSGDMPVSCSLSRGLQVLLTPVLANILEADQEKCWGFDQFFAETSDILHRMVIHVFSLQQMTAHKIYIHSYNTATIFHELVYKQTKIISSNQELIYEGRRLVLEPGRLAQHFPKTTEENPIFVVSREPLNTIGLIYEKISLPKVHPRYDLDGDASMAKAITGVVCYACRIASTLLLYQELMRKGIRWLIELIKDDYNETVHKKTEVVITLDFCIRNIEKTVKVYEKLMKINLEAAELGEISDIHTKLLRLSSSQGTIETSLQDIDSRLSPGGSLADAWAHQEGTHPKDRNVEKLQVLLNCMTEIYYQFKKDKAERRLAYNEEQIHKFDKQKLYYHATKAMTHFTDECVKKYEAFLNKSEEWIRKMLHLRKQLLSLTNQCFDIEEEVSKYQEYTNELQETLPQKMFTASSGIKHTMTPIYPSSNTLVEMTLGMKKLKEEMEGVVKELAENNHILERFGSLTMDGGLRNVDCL
From the text: (§1) The wash solution is then discarded.

[2] = biological target: kinases of Table 5 (Homo sapiens, UniProt Q8IU85); details: inhibitor 100 uM; for Inhibition level: kinase LOC57118; for Inhibition Results (Level): kinase LOC57118 (Part II, plate D2, Domain 1)
From the text: as §1

[3] = biological target: kinases of Table 5 (Homo sapiens, UniProt P06239); details: kinase LCK (Part I, plate A6, Domain 0)
From the text: as §1

[4] = biological target: kinases of Table 5 (Homo sapiens, UniProt Q13627); details: kinase DYRK1A (Part I, plate G6, Domain 1)
From the text: as §1

[5] = biological target: kinases of Table 5 (Homo sapiens, UniProt P00519); details: for Inhibition level: kinase ABL1; for Inhibition Results (Level): kinase ABL1 (Part II, plate B6, Domain 1)
From the text: as §1

[6] = biological target: kinases of Table 5 (Homo sapiens, UniProt O75716); details: kinase STK16 (Part I, plate C3, Domain 1)
From the text: as §1

[7] = biological target: T2, kinases of Table 5 (Homo sapiens, UniProt P51813); details: inhibitor 100 uM; for Inhibition level: kinase BMX; for Inhibition Results (Level): kinase BMX (Part II, plate B12, Domain 1)
T2 sequence (P51813 1-675): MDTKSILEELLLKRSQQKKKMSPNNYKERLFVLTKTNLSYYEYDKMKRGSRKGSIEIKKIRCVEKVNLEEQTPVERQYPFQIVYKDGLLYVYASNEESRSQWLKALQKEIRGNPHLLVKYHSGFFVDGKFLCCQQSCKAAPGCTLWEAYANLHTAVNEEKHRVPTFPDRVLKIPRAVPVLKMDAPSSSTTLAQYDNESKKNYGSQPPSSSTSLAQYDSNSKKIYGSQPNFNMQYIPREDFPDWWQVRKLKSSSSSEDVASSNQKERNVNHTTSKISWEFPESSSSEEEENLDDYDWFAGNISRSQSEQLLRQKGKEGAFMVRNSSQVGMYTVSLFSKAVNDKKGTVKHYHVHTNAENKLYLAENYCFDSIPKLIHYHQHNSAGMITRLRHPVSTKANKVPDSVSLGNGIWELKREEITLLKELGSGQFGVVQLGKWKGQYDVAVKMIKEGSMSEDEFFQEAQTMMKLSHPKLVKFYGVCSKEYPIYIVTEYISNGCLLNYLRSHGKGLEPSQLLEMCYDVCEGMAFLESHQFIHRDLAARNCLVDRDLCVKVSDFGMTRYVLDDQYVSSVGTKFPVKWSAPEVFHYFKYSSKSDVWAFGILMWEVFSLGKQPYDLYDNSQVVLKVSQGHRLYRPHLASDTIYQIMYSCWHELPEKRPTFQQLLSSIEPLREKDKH
From the text: as §1

[8] = biological target: kinases of Table 5 (Homo sapiens, UniProt Q05655); details: for Inhibition level: kinase PRKCD; for Inhibition Results (Level): kinase PRKCD (Part II, plate B2, Domain 0)
From the text: as §1

[9] = biological target: kinases of Table 5 (Homo sapiens, UniProt P07949); details: for Inhibition level: kinase RET; for Inhibition Results (Level): kinase RET (Part II, plate B7, Domain 1)
From the text: as §1

[10] = biological target: T3, kinases of Table 5 (Homo sapiens, UniProt Q13043); details: for Inhibition level: kinase STK4; for Inhibition Results (Level): kinase STK4 (Part II, plate D6, Domain 1)
T3 sequence (Q13043 1-487): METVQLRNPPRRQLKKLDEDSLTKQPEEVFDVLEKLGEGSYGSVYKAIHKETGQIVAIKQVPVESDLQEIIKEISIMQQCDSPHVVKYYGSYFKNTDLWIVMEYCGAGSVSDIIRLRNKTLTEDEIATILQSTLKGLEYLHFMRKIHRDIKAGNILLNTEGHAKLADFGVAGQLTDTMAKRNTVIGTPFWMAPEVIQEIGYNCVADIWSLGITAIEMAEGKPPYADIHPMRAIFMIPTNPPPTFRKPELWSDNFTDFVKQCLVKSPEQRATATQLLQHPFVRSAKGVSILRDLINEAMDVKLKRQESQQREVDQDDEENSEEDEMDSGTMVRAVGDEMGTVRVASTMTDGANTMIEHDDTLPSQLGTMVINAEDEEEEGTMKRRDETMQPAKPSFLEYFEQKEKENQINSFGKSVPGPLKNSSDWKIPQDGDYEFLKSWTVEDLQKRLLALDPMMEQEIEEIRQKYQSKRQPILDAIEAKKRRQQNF
From the text: as §1

[11] = biological target: kinases of Table 5 (Homo sapiens, UniProt Q9UIK4); details: for Inhibition level: kinase DAPK2; for Inhibition Results (Level): kinase DAPK2 (Part II, plate H3, Domain 1)
From the text: as §1

Sequence of kinases of Table 5 (Homo sapiens, UniProt O75716) (O75716 whole entry): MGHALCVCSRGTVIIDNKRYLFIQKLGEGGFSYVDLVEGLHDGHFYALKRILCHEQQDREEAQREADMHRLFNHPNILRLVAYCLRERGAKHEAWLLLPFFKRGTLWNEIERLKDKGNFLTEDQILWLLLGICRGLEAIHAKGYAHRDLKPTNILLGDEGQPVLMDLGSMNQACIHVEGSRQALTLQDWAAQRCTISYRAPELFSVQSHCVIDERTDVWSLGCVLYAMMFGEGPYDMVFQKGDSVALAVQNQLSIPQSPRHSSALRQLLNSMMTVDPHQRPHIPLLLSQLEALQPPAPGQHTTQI
Sequence of kinases of Table 5 (Homo sapiens, UniProt P06239) (P06239 whole entry): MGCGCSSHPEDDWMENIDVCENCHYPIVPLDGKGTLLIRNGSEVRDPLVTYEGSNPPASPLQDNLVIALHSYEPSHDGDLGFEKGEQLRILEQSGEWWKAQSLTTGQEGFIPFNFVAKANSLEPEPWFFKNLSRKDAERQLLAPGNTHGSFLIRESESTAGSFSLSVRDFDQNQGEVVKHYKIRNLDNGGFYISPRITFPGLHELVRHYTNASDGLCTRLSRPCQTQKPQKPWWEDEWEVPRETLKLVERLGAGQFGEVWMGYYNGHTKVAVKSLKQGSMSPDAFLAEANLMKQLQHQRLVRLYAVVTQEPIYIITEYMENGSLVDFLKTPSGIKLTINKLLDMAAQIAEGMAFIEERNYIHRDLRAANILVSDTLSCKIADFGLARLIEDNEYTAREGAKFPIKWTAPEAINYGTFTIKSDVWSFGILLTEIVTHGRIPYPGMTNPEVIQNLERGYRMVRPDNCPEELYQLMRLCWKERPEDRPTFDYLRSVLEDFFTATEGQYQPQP
Sequence of kinases of Table 5 (Homo sapiens, UniProt Q05655) (Q05655 whole entry): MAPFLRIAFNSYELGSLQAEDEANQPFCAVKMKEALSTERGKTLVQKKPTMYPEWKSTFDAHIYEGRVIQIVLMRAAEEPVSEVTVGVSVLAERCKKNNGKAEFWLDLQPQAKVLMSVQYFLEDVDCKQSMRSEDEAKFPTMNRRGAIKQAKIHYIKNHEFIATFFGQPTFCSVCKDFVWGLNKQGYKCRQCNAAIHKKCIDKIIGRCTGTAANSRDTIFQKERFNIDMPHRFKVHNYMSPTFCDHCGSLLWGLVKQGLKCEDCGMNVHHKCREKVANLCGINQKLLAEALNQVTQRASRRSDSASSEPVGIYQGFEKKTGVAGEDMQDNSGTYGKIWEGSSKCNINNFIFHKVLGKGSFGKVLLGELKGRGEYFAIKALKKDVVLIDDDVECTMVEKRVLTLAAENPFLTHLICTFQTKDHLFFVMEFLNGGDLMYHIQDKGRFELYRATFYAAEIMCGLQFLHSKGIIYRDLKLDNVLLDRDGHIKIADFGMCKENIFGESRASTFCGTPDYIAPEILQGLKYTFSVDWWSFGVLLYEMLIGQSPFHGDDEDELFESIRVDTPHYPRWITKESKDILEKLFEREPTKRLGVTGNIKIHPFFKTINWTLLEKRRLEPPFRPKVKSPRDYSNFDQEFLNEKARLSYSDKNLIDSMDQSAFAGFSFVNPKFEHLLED
Sequence of kinases of Table 5 (Homo sapiens, UniProt Q8IU85) (Q8IU85 whole entry): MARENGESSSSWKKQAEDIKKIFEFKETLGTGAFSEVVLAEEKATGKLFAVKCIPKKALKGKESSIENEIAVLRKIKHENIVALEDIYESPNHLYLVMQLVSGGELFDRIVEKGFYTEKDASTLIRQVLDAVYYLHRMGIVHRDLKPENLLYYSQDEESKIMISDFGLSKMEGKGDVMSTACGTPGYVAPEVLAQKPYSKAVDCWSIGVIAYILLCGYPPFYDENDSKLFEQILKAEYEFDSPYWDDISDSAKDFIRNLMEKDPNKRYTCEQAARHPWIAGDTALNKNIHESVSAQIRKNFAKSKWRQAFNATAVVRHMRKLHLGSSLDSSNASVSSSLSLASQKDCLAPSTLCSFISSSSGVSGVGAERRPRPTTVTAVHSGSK
Sequence of kinases of Table 5 (Homo sapiens, UniProt P00519) (P00519 whole entry): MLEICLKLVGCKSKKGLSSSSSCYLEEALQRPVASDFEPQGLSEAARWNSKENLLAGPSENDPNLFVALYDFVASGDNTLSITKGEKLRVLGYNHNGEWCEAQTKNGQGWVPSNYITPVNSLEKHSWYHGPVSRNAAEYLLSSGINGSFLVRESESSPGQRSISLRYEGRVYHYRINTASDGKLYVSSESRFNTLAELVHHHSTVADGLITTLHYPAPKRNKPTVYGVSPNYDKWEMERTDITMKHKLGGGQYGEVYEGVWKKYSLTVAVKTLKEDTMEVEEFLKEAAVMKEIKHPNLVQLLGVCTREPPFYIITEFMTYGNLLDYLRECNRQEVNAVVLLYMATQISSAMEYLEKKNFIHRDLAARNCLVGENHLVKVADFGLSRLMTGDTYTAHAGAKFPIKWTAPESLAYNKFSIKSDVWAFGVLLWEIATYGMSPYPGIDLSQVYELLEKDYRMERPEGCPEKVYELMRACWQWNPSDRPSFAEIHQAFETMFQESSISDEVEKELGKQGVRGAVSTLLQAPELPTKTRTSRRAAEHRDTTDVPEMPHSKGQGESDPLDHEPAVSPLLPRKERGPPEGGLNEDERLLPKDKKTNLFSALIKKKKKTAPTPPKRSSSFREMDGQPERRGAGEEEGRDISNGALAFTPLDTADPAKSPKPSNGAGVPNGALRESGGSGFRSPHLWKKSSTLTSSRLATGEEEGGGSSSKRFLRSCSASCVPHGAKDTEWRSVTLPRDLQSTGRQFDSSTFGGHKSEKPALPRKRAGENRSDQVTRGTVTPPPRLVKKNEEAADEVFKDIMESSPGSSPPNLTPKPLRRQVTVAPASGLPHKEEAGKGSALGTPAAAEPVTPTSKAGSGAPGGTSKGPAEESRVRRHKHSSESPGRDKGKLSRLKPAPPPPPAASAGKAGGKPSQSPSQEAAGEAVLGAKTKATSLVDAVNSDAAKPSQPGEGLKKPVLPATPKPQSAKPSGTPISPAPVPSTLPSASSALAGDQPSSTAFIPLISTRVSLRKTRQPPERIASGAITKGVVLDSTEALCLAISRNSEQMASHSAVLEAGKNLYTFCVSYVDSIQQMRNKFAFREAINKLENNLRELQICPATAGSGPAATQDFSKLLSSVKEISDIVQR
Sequence of kinases of Table 5 (Homo sapiens, UniProt Q9UIK4) (Q9UIK4 whole entry): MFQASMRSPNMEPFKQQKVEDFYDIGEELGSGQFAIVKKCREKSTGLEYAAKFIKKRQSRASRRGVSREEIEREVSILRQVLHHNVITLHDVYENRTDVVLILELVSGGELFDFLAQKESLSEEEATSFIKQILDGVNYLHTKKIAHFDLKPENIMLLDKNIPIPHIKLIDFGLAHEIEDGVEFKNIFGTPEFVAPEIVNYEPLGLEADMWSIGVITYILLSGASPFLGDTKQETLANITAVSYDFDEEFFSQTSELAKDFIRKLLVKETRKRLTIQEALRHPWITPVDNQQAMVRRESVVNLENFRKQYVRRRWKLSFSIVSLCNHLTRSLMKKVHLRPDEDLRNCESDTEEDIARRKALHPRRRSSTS
Sequence of kinases of Table 5 (Homo sapiens, UniProt P07949) (P07949 29-1114): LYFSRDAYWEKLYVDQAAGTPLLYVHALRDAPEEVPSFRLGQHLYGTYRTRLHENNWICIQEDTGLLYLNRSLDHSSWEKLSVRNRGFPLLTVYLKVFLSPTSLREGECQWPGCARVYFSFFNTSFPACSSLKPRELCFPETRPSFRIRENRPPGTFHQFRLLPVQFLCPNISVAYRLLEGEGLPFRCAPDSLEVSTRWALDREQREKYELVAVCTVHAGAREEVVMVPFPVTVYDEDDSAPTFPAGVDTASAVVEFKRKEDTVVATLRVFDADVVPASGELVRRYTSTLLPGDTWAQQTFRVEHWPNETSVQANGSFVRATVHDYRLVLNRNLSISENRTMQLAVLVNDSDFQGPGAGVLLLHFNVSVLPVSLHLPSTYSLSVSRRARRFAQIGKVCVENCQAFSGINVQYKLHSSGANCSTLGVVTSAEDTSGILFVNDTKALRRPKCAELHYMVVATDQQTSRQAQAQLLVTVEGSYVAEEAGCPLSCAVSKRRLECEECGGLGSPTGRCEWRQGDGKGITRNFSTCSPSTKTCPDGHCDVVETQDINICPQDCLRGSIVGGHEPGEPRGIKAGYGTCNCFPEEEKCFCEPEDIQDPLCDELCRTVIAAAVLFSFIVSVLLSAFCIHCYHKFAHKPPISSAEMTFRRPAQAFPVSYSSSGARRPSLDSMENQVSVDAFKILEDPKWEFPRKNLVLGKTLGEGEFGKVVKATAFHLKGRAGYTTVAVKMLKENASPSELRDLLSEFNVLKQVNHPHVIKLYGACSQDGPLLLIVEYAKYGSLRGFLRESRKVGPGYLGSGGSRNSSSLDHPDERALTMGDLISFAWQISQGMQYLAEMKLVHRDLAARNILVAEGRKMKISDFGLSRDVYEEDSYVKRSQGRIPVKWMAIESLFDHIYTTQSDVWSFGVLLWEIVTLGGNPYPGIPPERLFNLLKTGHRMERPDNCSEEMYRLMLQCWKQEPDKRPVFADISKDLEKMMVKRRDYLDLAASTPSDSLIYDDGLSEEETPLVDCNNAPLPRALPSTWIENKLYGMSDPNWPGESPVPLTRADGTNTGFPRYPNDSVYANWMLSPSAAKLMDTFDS

| Compound | Inhibition Results (Level) [1] | Inhibition level [2] | Inhibition Results (Level) ([3]; inhibitor 100 uM) | Inhibition Results (Level) ([4]; inhibitor 100 uM) | Inhibition level ([5]; inhibitor 100 uM) | Inhibition Results (Level) ([6]; inhibitor 100 uM) | Inhibition level [7] | Inhibition level ([8]; inhibitor 100 uM) | Inhibition level ([9]; inhibitor 100 uM) | Inhibition level ([10]; inhibitor 100 uM) | Inhibition level ([11]; inhibitor 100 uM) | Inhibition level ([10]; concentration not given) | Inhibition level ([11]; concentration not given) | Inhibition Results (Level) [2] | Inhibition Results (Level) [7] | Inhibition Results (Level) ([8]; inhibitor 100 uM) | Inhibition Results (Level) ([10]; inhibitor 100 uM) | Inhibition Results (Level) ([11]; inhibitor 100 uM) | also measured |
| --- | --- | --- | --- | --- | --- | --- | --- | --- | --- | --- | --- | --- | --- | --- | --- | --- | --- | --- | --- |
| N#C/C(=C/c1ccc(O)c(O)c1)C(=O)NCc1ccccc1 [AG 490] | 2 | 1 | 2 | 2 | 0 | 0 | 0 | 0 | 2 | 0 | 2 | – | – | – | – | – | – | – | – |
| COc1cc2ncnc(Nc3cccc(Cl)c3)c2cc1OC [AG 1478] | 2 | 0 | 2 | 0 | 1 | 0 | 1 | 0 | 2 | 1 | 0 | – | – | – | – | – | – | – | – |
| O=c1c(-c2ccc(O)cc2)coc2cc(O)cc(O)c12 [Genistein] | 2 | 0 | 2 | 2 | 0 | 0 | 0 | 0 | 2 | 0 | 2 | 0 | 0 | – | – | – | – | – | Inhibition Results (Level) ([3]; inhibitor <3.7 mM): 0; Inhibition Results (Level) ([4]; inhibitor <3.7 mM): 1; Inhibition level ([5]; concentration not given): 0; Inhibition Results (Level) ([6]; inhibitor <3.7 mM): 0; Inhibition level ([8]; concentration not given): 0; Inhibition level ([9]; concentration not given): 0 |
| O=S(=O)(NCCNC/C=C/c1ccc(Br)cc1)c1cccc2cnccc12 [H-89] | 2 | – | 2 | 2 | – | 2 | – | – | – | – | – | – | – | 1 | 1 | 1 | 2 | 2 | Inhibition Results (Level) ([5]; inhibitor 100 uM): 0; Inhibition Results (Level) ([9]; inhibitor 100 uM): 0 |
| CC(C)(C)n1nc(-c2ccc(Cl)cc2)c2c(N)ncnc21 [PP2] | 1 | 0 | – | 1 | – | 2 | 2 | 0 | 2 | 2 | 2 | – | – | – | – | – | – | – | – |
| O=c1c(O)c(-c2ccc(O)c(O)c2)oc2cc(O)cc(O)c12 [Quercetin] | 0 | – | – | – | – | 0 | – | – | – | – | – | – | – | 0 | 0 | 0 | 0 | 0 | – |
| Cn1cc(C2=C(c3cn(CCCSC(=N)N)c4ccccc34)C(=O)NC2=O)c2ccccc21 [Ro-31-8220] | 2 | 0 | 2 | 2 | 2 | 1 | 2 | 0 | 0 | 2 | 2 | 0 | 2 | – | – | – | – | – | Inhibition Results (Level) ([3]; inhibitor 90 uM): 0; Inhibition Results (Level) ([4]; inhibitor 90 uM): 0; Inhibition level ([5]; concentration not given): 0; Inhibition Results (Level) ([6]; inhibitor 90 uM): 2; Inhibition level ([8]; concentration not given): 2; Inhibition level ([9]; concentration not given): 2 |
| CC(=O)c1c(O)c(C)c(O)c(Cc2c(O)c3c(c(C(=O)/C=C/c4ccccc4)c2O)OC(C)(C)C=C3)c1O [Rottlerin (Mallotoxin)] | 1 | – | 2 | 0 | – | 0 | – | – | – | – | – | – | – | 0 | 1 | 0 | 0 | 1 | Inhibition Results (Level) ([5]; inhibitor 100 uM): 0; Inhibition Results (Level) ([9]; inhibitor 100 uM): 0 |
| CN[C@@H]1C[C@H]2O[C@@](C)([C@@H]1OC)n1c3ccccc3c3c4c(c5c6ccccc6n2c5c31)C(=O)NC4 [Staurosporine] | – | – | – | – | – | – | – | – | – | – | – | 0 | 2 | – | – | – | – | – | Inhibition Results (Level) ([6]; inhibitor 21.5 uM): 2 |
